# Measurements reported in US8889425B2 (Bayerische Julius-Maximilians-Universität Würzburg, priority 2003, dated 2014).
# Tests used:
# [1] = system: adenosine A2B receptor (CHO cells; single binding domain EPAC2 sensors); assay: single cell FRET, CHO cells expressing adenosine A2B receptor, EPAC2 sensors; type: cell-based; settings: 24 hours after transfection, single living cells
# Procedure: Transfected cells were analyzed 24 h later.
# [2] = system: adenylyl cyclase; assay: FRET signal with direct activators of adenylyl cyclase in cells; type: cell-based
# [3] = system: endogenous beta2-adrenergic receptors (HEK293 cells; murine HCN2 (A467-K638) sensor); settings: 10 μM isoproterenol
# Procedure: FIG. 12. […] B. FRET measurements in living HEK293 cells stimulated with 10 μM isoproterenol via endogenous beta2-adrenergic receptors. Cells were transfected with HCN2-based (A467-K638) sensor.
# Samples were excited with a light from Polychrom IV (Till Photonics). […] The imaging data were analyzed by MetaMorph 5.0r6 software (Universal Imaging Corp.) and corrected for spillover of CFP into 535 nm channel, as well as for acceptor photobleaching to give a corrected ratio F535 nm/F480 nm.
smiles,measurement,setting,value
Nc1ncnc2c1ncn2[C@@H]1O[C@H](CO)[C@@H](O)[C@H]1O [adenosine],FRET between YFP and CFP upon adenosine,[1],decrease of FRET
C=C[C@@]1(C)CC(=O)[C@]2(O)[C@@]3(C)[C@@H](O)CCC(C)(C)[C@@H]3[C@H](O)[C@H](OC(C)=O)[C@@]2(C)O1 [forskolin],FRET-signal,[2],detectable FRET-signal
CC(C)NCC(O)c1ccc(O)c(O)c1 (stereo not drawn) [isoproterenol],cAMP-dependent FRET change upon isoproterenol,[3],decrease in FRET
